Data taken from US4288438A, “Nitrogen-containing heterocyclic ring derivatives and analgesic and anti-inflammatory compositions and methods employing them” (priority 1976, dated 1981).

Key:
[1] = system: Carrageenin-induced edema; experiment: Carrageenin-induced edema, hind paw, oral (Table 1); format: in vivo, Male Wister rats; conditions: rat, 1 hour before Carrageenin, edema weight after 3 hours; for inhibition in vivo at 50 mg/kg: po; for inhibition in vivo at 50 mg/kg / Inhibition (%) p.o. 50mg/kg: p.o. 50 mg/kg
Procedure: (a) Carrageenin-induced edema
Male Wister rats (weighting 130-170 g.), one group being 6 rats, fasted overnight were used. According to […] [Proc. Soc. […] After 3 hours, each rat was sacrificed by chloroform and the hind paw was cut and weighed immediately. By using the value obtained by subtracting the weight of the untreated hind paw from the weight of the hind paw having injected therein the Carrageenin as the weight of edema, the inhibitory ratio of the sample administered rat groups to control groups was calculated. The sample was orally administered one hour before the injection of Carrageenin.
(§1) In addition, the test samples used in the aforesaid tests (a), (b), (c) and (d) were prepared by suspending the test compounds, in the cases of using the compounds of Test Nos. 1,2,4,5,6,8,9,10,11, 16-21 and p henylbutazone,in an aqueous 0.5% methyl cellulose solution, dissolving the test compounds, in the cases of using the compounds of Test Nos. 13,14 and 15, in aqueous solution of 0.5% methyl cellulose, and further dissolving the test compounds, in the cases of using the compounds of Test Nos. 3,7 and 12 and aminopyrine, in distilled water.

[2] = system: Permeability (dye leaked in the abdominal cavity); experiment: Whittle's method: permeability, dye leaked in the abdominal cavity, oral (Table 2); format: in vivo, Male ICR-Mice
Procedure: (b) Whittle's method (British J. Pharmacol.; 22, 246-253 (1964))
(§2) Male ICR-Mice (weighting 25-35 g.), one group being 12 mice, fasted overnight were used in this test. The sample was orally administered, and 20 minutes after, 5 ml./Kg. of 0.4% Evance blue was injected by intravenously and further 10 minutes after, 10 ml./Kg. of 0.6% acetic acid was injected by intraperitoneally. The number of writhings after 20 minutes since the administration of acetic acid was recorded and 10 minutes after since then, the mice were killed by dislocation of the neck, the dye leaked in the abdominal cavity was washed out with 5 ml. of 0.9% saline to make the total amount 10 ml., and thereafter furs, blood corpuscles, etc., intermingled were removed by centrifugal separation at 3,000 r.p.m. for 5 minutes. Furthermore, for preventing turbidity caused by protein, 0.1 ml. of an aqueous 0.1 normal sodium hydroxide was added and then the absorbance at 590 nm was measured. The inhibition ratio of the sample administered rat groups to control groups was calculated.
as §1

writhings (acetic acid) = experiment: Whittle's method: acetic acid writhing, oral (Table 2); format: in vivo, Male ICR-Mice; conditions: mouse, 0.6% acetic acid i.p.
Procedure: as §2, §1

[3] = Acute toxicity, mouse (Table 4); format: in vivo
[4] = system: Hyperthemia caused by Brewer's yeast; experiment: Antipyretic effect, Brewer's yeast hyperthermia, rectal temperature (Table 3); format: in vivo, Male Wister rats; conditions: rat, 50mg/kg p.o., in °C (unit assumed); for Rectal temperature (mean ± SE) 1 hour / Rectal temperature (mean ± SE) 2 hours / Rectal temperature (mean ± SE) 4 hours: * p<0.05 vs before for Test Nos. 1, 2 and Aminopyrine; for Rectal temperature (mean ± SE) 6 hours: * p<0.05 vs before for Test No. 2 and Aminopyrine; for Rectal temperature (mean ± SE) before: before administration
Procedure: Male Wister rats (weighting 130-150 g.), one group being 5 rats, were used. Hyperthemia was caused by subcutaneous injection of 2 ml./rat of 20% Brewer's yeast suspension. 18 hours later, the rats showing a rise in temperature exceeding 1° C. were selected and allocated into groups each consisting of 5 rats. The sample was orally administered and then the body temperature was measured with the passage of time for 6 hours since then. In addition, the body temperature was measured by measuring the temperature in the rectum by means of a thermister thermometer.
as §1

[5] = Acute toxicity, rat (Table 4); format: in vivo, Male Wister rats; conditions: 500 mg/Kg oral, 7 days, deaths/animals
Procedure: Male Wister rats (weighting 130-170 g.), one group being 5 rats, fasted overnight were used in this test.
as §1

[6] = mouse, 25 mg/kg p.o., Evance blue i.v., acetic acid i.p., 590 nm
[7] = mouse, 50 mg/kg p.o., Evance blue i.v., acetic acid i.p., 590 nm
[8] = deaths/animals, method given for rats only (500 mg/Kg oral, 7 days)

Row | Compound | inhibition in vivo at 50 mg/kg [1] | Inhibition (%) Permeability 25mg/kg p.o. [2, 6] | Inhibition (%) Permeability 50mg/kg p.o. [2, 7] | Inhibition (%) Writhing S 25mg/kg p.o. (writhings (acetic acid)) | Inhibition (%) Writhing S 50mg/kg p.o. (writhings (acetic acid)) | Inhibition (%) p.o. 100mg/kg [1] | Inhibition (%) p.o. 50mg/kg [1] | also measured
1 | Cc1cc2n(c(=O)c1-c1ccccc1)CCN2C [Test No. 16, 1,7-dimethyl-5-oxo-6-phenyl-1,2,3,5-tetrahydroimidazo[1,2-a]pyridine] | 47.7% | – | – | – | – | – | – | –
2 | Cc1cc2n(c(=O)c1)CCN2C [Test No. 3, 1,7-dimethyl-5-oxo-1,2,3,5-tetrahydroimidazo[1,2-a]pyridine] | 52.3% | 18.5% | 46.2% | 52.1% | 75.3% | 51.5% | – | Number of deaths Mouse [3, 8]: 1/5
3 | CN1CCn2c1cc(-c1ccccc1)cc2=O [Test No. 5] | – | 20.0% | 42.1% | 41.2% | 67.4% | – | – | –
4 | CN1CCCn2c1cc(-c1ccccc1)cc2=O [Test No. 1] | – | 18.0% | 44.4% | 41.8% | 87.6% | – | 71.5% | Rectal temperature (mean ± SE) 1 hour [4]: 37.07 ± 0.15; Rectal temperature (mean ± SE) 2 hours [4]: 36.17 ± 0.32; Rectal temperature (mean ± SE) 4 hours [4]: 36.12 ± 0.17; Rectal temperature (mean ± SE) 6 hours [4]: 38.52 ± 0.47; Rectal temperature (mean ± SE) before [4]: 38.82 ± 0.05
5 | O=c1cc(-c2ccccc2)cc2n1CCCN2 [Test No. 6] | – | 28.4% | 59.0% | 69.0% | 91.5% | 80.5% | 72.7% | –
6 | CN1CCn2c1cc1c(c2=O)CCC1 [Test No. 13, 1-methyl-5-oxo-1,2,3,6,7,8-hexahydroimidazo[1,2-b]1H-2-pyrindine] | – | – | – | – | – | – | 57.1% | –
7 | O=c1cc(-c2ccccc2)cc2n1CCN2 [Test No. 2] | – | 26.9% | 51.1% | 28.9% | 52.6% | 76.1% | 71.6% | Rectal temperature (mean ± SE) 1 hour [4]: 37.80 ± 0.10; Rectal temperature (mean ± SE) 2 hours [4]: 36.74 ± 0.24; Rectal temperature (mean ± SE) 4 hours [4]: 36.77 ± 0.39; Rectal temperature (mean ± SE) 6 hours [4]: 37.51 ± 0.57; Rectal temperature (mean ± SE) before [4]: 38.89 ± 0.21; Number of deaths Mouse ([3]; in vivo): 0/5
8 | CN1CCCn2c1cc(-c1ccc(Cl)cc1)cc2=O [Test No. 11] | – | – | – | – | – | – | 47.1% | –
9 | O=c1cc(-c2ccccc2)cc2sccn12 [Test No. 21] | – | – | – | – | – | – | 46.9% | –
10 | CN1CCn2c1ccc(-c1ccccc1)c2=O [Test No. 7, 1-methyl-5-oxo-6-phenyl-1,2,3,5-tetrahydroimidazo[1,2-a]pyridine] | 75% | 49.3% | 63.8% | 59.1% | 95.3% | 79.5% | – | –
11 | Cc1c(-c2ccccc2)cc2n(c1=O)CCCN2C [Test No. 17, 1,7-dimethyl-6-oxo-8-phenyl-1,2,3,4,6-pentahydropyrido[1,2-a]pyrimidine] | 45.7% | – | – | – | – | – | – | –
12 | CN1CCCn2c1cc1c(c2=O)CCCC1 [Test No. 15, 1-methyl-6-oxo-1,2,3,4,6,7,8,9,10-nonahydropyrimido[1,2-b]isoquinoline] | 52.4% | – | – | – | – | – | – | –
13 | CC1CNc2cc(-c3ccccc3)cc(=O)n21 (centres unmarked) [Test No. 20] | – | – | – | – | – | – | 72.2% | –
14 | Cc1cc(=O)n2c(c1-c1ccccc1)N(C)CC2 [Test No. 18, 1,7-dimethyl-5-oxo-8-phenyl-1,2,3,5-tetrahydroimidazo[1,2-a]pyridine] | – | – | – | – | – | 41.0% | – | –
15 | O=c1cc(-c2ccccc2)cc2n1CCS2 [Test No. 10] | – | – | – | – | – | – | – | Number of deaths Rat [5]: 0/5; Number of deaths Mouse [3, 8]: 0/5
16 | Cc1cc2n(c(=O)c1)CCCN2C [Test No. 8] | – | – | – | 35.6% | 66.4% | – | 53.3% | Inhibition (%) Permeability 25mg/kg p.o. ([2]; 25 mg/kg): 32.4%; Inhibition (%) Permeability 50mg/kg p.o. ([2]; 50 mg/kg): 25.8%
17 | CCCCC1C(=O)N(c2ccccc2)N(c2ccccc2)C1=O [phenylbutazone, reference compound] | 44.5% | – | – | – | – | 51.2% | – | –
18 | O=c1cc(-c2ccccc2)cc2n1CC[S+]2[O-] (centres unmarked) [Test No. 4] | – | – | – | – | – | – | – | Number of deaths Rat [5]: 2/5; Number of deaths Mouse [3, 8]: 1/5
19 | Cc1c(N(C)C)c(=O)n(-c2ccccc2)n1C [Aminopyrine, reference compound] | – | 28.5% | 41.7% | 29.6% | 58.1% | – | – | Rectal temperature (mean ± SE) 1 hour [4]: 37.92 ± 0.09; Rectal temperature (mean ± SE) 2 hours [4]: 37.49 ± 0.10; Rectal temperature (mean ± SE) 4 hours [4]: 37.39 ± 0.07; Rectal temperature (mean ± SE) 6 hours [4]: 37.76 ± 0.18; Rectal temperature (mean ± SE) before [4]: 39.24 ± 0.14
20 | CN1CCn2c1cc1c(c2=O)CCCC1 [Test No. 14, 1-methyl-5-oxo-1,2,3,5,6,7,8,9-octahydroimidazo[1,2-b]isoquinoline] | 64.1% | – | – | – | – | – | – | –
21 | CCN1CCn2c1cc(-c1ccccc1)cc2=O [Test No. 9] | – | – | – | – | – | – | – | Number of deaths Rat [5]: 0/5; Number of deaths Mouse [3, 8]: 0/5
22 | Cc1cc(=O)n2c(c1-c1ccccc1)NCCC2 [Test No. 19] | – | – | – | – | – | 46.7% | – | –
